US9326978B2, “A3 adenosine receptor allosteric modulators” (The United States of America, Represented by the Secretary, …, priority 2006, dated 2016)
Entries after “also recorded” stand apart in the source; their conditions may differ. Where two headings read alike, the source gives them in different places.

Columns and labels:
human A1AR = human A1AR (Homo sapiens (Human), UniProt P30542); test: Binding assay to the human A1AR ([3H]R-PIA); details: 1 h, 10 μM, CHO cells, read-out: hA1AR % displ. at 10 μM
Procedure: (§1) CHO (Chinese hamster ovary) cells expressing the recombinant human ARs (HEK-293 cells were used for the human A2AAR) were cultured in DMEM and F12 (1:1) supplemented with 10% fetal bovine serum, 100 units/ml penicillin, […] streptomycin and 2 μmol/ml glutamine. Cells were harvested by trypsinization. After homogenization and suspension, cells were centrifuged at 500 g for 10 min, and the pellet was re-suspended in 50 mM Tris.HCl buffer (pH 7.4) containing 10 mM MgCl2. The suspension was homogenized with an electric homogenizer for 10 sec, and was then re-centrifuged at 20,000 g for 20 min at 4° C. The resultant pellets were resuspended in buffer in the presence of 3 Units/mL adenosine deaminase, and the suspension was stored at −80° C. until the binding experiments. The protein concentration was measured using the Bradford assay.
(§2) For binding to the human A1AR, [^3H]R-PIA (2 nM) was incubated with membranes (40 μg/tube) from CHO cells stably expressing the human A1AR at 25° C. for 60 min in 50 mM Tris.HCl buffer (pH 7.4; MgCl2, 10 mM) in a total assay volume of 200 μL. Nonspecific binding was determined using 10 μM of N^6-cyclopentyladenosine. For human A2A AR binding, membranes (20 μg/tube) from HEK-293 cells stably expressing the human A2A AR were incubated with 15 nM [^3H]CGS21680 at 25° C. for 60 min in 200 μL of 50 mM Tris.HCl, pH 7.4, containing 10 mM MgCl2. N-5′-ethyluronamidoadenosine (10 μM) was used to define nonspecific binding. Reaction was terminated by filtration with GF/B filters.

human A3AR = human A3AR (Homo sapiens (Human), UniProt P0DMS8); test: Competitive binding assay to the human A3AR ([125I]I-AB-MECA)
Procedure: as §1
Each tube in the competitive binding assay contained 100 μl membrane suspension (20 μg protein), 50 μl [^125I]-AB-MECA (0.5 nM), and 50 μl of increasing concentrations of the test ligands in Tris.HCl buffer (50 mM, pH 8.0) containing 10 mM MgCl2, 1 mM EDTA. Nonspecific binding was determined using 10 μM of 5′-N-ethylcarboxamidoadenosine in the buffer. The mixtures were incubated at 25° C. for 60 min. Binding reactions were terminated by filtration through Whatman GF/B filters under reduced pressure using a MT-24 cell harvester (Brandell, Gaithersburgh, Md., USA). Filters were washed three times with 9 mL ice-cold buffer. Radioactivity was determined in a Beckman 5500B γ-counter.

[1] = system: adjuvant induced arthritis; test: Adjuvant induced arthritis (AIA) model; assay type: in vivo; details: AIA rats, orally twice daily 100 μg/kg from onset of disease; vs control
Procedure: Adjuvant induced arthritis model (model for rheumatoid arthritis (RA)) was established in rats by immunizing the animals with an emulsion contacting Mycobacterium tuberculosis in Freund's adjuvant (Animal Models for Autoimmune and Inflammatory disease:Adjuvant Arthritis in the Rat. Current Protocols in Immunology, Supplement 19, page 15.4.2.). Treatment with imidazoquinoline derivative 45 was initiated upon onset of disease. The imidazoquinoline derivative 45 was administered orally twice daily at a dose of 100 μg/kg.
Evaluation of disease development was carried out daily, starting upon onset of disease until the end of the study. Intensity of arthritis was scored by grading each paw from 0-4 on erythema, swelling and deformity of the joint, every day: 0=no erythema or swelling; 1=slight erythema or swelling of one of the toes or fingers; 2=erythema and swelling of more than one toe or finger; 3=erythema and swelling of the ankle or wrist; 4=complete erythema and swelling of toes or fingers and ankles or wrist, and inability to bend the ankle or wrist. All scores of the four legs from each rat are added to give up to a maximum arthritic score of 16.

human A3ARs = human A3ARs (Homo sapiens (Human), UniProt P0DMS8); test: Dissociation kinetics of [125I]I-AB-MECA from human A3ARs; assay type: binding
Procedure: The dissociation of [^125I]I-AB-MECA was measured as follows. Membranes (20 μg) were preincubated at 25° C. with 0.5 nM [^125I]I-AB-MECA, in a total volume of 100 μl of Tris-HCl buffer (50 mM, pH 8.0) containing 10 mM MgCl2, and 1 mM EDTA for 60 min. The dissociation was then initiated by the addition of 3 μM Cl-IB-MECA with or without allosteric modulators. The time course of dissociation of total binding was measured by rapid filtration at appropriate time intervals. Nonspecific binding was measured after 60-min incubation in the presence of 3 μM Cl-IB-MECA. Further assay was as described above.

human A2A AR = human A2A AR (Homo sapiens (Human), UniProt P29274); test: Binding assay to the human A2A AR ([3H]CGS21680); details: 10 μM
Procedure: as §1, §2

myeloid system = test: Effect on the myeloid system of naïve mice (differential blood count); assay type: in vivo; details: naïve ICR mice, orally 100 μg/kg thrice daily for two days; blood 24 and 48 hours after last administration; vs control
Procedure: A stock solution of imidazoquinoline derivative 45 was prepared by dissolving the same in DMSO. Further dilutions for treatment were performed in PBS. As a control, an equivalent amount of DMSO in PBS was used.
To test the effect of imidazoquinoline derivative 45 on the myeloid system, the compound was orally administered at a dose of 100 μg/kg, thrice daily to ICR mice, for two consecutive days. Blood samples were withdrawn 24 and 48 hours after the last drug administration. A differential blood count was performed.

Chain of human A1AR (P30542 whole entry): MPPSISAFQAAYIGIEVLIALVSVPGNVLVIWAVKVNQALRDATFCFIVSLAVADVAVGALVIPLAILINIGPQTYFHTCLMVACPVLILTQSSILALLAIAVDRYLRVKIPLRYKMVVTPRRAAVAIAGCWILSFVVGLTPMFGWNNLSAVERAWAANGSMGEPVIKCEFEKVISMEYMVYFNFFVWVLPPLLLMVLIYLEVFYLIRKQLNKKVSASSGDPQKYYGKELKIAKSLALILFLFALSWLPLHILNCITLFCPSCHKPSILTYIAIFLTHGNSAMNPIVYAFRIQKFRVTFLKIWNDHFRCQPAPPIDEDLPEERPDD
Chain of human A3AR (P0DMS8 whole entry): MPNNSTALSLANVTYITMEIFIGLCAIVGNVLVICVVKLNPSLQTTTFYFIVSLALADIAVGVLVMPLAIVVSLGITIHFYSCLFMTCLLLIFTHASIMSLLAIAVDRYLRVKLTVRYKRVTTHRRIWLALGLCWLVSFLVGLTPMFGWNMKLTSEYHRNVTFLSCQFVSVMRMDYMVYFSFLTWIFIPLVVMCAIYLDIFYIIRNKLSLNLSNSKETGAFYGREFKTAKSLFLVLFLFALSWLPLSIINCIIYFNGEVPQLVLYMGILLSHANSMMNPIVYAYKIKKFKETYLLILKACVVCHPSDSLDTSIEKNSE
Chain of human A2A AR (P29274 whole entry): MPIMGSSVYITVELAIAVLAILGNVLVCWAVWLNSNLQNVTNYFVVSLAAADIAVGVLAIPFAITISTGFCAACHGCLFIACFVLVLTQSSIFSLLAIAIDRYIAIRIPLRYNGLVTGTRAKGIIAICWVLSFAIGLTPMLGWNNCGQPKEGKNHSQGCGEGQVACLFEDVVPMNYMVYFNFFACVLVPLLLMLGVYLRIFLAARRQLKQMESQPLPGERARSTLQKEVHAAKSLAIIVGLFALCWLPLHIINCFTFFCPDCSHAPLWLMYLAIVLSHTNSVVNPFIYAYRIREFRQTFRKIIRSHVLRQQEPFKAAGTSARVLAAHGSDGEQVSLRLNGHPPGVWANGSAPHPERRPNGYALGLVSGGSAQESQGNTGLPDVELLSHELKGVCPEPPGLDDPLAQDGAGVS
Chain of human A3ARs (P0DMS8 whole entry): as the sequence (P0DMS8 whole entry) above

What does the source list for `Clc1ccc(Nc2nc3ccccc3c3[nH]c(C4CCCCC4)nc23)cc1Cl` [Compound 45, N-(3,4-Dichloro-phenyl)-2-cyclohexyl-1H-imidazo[4,5-c]quinolin-4-amine]?
inhibition at 10 µM (human A1AR; [3H]R-PIA, Table 3): < 10%; inhibition at 10 µM (human A1AR; [3H]R-PIA, Table 4): < 10%; inhibition at 10 µM (human A1AR; [3H]R-PIA (2.0 nM), Table 2): -2%; hA3AR % displ. at 10 μM (human A3AR; 10 μM, [125I]I-AB-MECA, CHO cells, Table 3): 45%; inhibition at 10 µM (human A3AR; 1 h, 10 μM, [125I]I-AB-MECA (0.5 nM), CHO cells, Table 2, read-out: hA3AR % displ. at 10 μM): 45%; affinity to orthosteric versus allosteric binding sites (selective affinity) (human A3AR; orthosteric sites of A1, A2A, A2B, A3 receptors vs allosteric site of A3 adenosine receptor): selective affinity; also recorded: best separation between orthosteric and allosteric recognition; clinical score (arthritic score, max 16) [1]: reduction in clinical score; activity at 10 µM (human A3ARs; 0.5 h, % decrease of dissociation at 30 min, residual binding of [125I]AB-MECA after 30 min = 100%, Table 2, read-out: hA3AR Ag. Dissociation at 10 μM): 173 ± 5%; hA3R Ag. Dissociation (%) at 10 μM (human A3ARs; % decrease of [125I]I-AB-MECA dissociation at 30 min (control = 100%), Table 3): 173 ± 5%; hA2AAR % displ. at 10 μM (human A2A AR; [3H]CGS 21680 (15 nM), HEK293 cells, Table 2): −1%; hA2AAR % displ. at 10 μM (human A2A AR; [3H]CGS 21680, Table 3): <10%; hA2AAR % displ. at 10 μM (human A2A AR; [3H]CGS 21680, Table 4): <10%; number of neutrophils (myeloid system): increased; number of white blood cells (WBC) (myeloid system): increased
